# Measurements taken from ChEMBL document CHEMBL1201862, “PubChem BioAssay data set” (2004).
#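 Cells were grown in 96-well plates and exposed to each compound for 48 hours at five concentrations; endpoints were interpolated linearly between bracketing concentrations, or set to the highest concentration if not reached. GI50 marks 50% less growth.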 Calls of active or inactive are those of the source. No stated cut-off is given here; in the data, active = GI50 up to about 1.1 µM and inactive = higher.
# Legend:
# Test in all cases: NCI tumour cell line growth inhibition, 48 h
# OVCAR-8 = tested on: OVCAR-8
# 786-0 = tested on: 786-0
# DU-145 = tested on: DU-145
# PC-3 = tested on: PC-3
# SF-295 = tested on: SF-295
# SK-OV-3 = tested on: SK-OV-3
# SK-MEL-5 = tested on: SK-MEL-5
# MOLT-4 = tested on: MOLT-4
# EKVX = tested on: EKVX
# UACC-62 = tested on: UACC-62
# NCI-H522 = tested on: NCI-H522
# NCI/ADR-RES = tested on: NCI/ADR-RES
# HOP-62 = tested on: HOP-62
# OVCAR-3 = tested on: OVCAR-3
# Hs-578T = tested on: Hs-578T
# IGROV-1 = tested on: IGROV-1
# NCI-H460 = tested on: NCI-H460
# HT-29 = tested on: HT-29
# MDA-MB-231 = tested on: MDA-MB-231
# T47D = tested on: T47D
# HOP-92 = tested on: HOP-92
# SF-268 = tested on: SF-268
# MDA-N = tested on: MDA-N
# HCT-15 = tested on: HCT-15
# HCT-116 = tested on: HCT-116
# SN12C = tested on: SN12C
# OVCAR-4 = tested on: OVCAR-4
# A549 = tested on: A549
# Malme-3M = tested on: Malme-3M
# M14 = tested on: M14
# SNB-75 = tested on: SNB-75
# SW-620 = tested on: SW-620
# LOX IMVI = tested on: LOX IMVI
# COLO 205 = tested on: COLO 205
# SK-MEL-2 = tested on: SK-MEL-2
# ACHN = tested on: ACHN
# SR = tested on: SR
# UACC-257 = tested on: UACC-257
# TK-10 = tested on: TK-10
# HL-60 = tested on: HL-60
# SF-539 = tested on: SF-539
# SNB-19 = tested on: SNB-19
# U-251 = tested on: U-251
# NCI-H23 = tested on: NCI-H23
# RPMI-8226 = tested on: RPMI-8226
# OVCAR-5 = tested on: OVCAR-5
# NCI-H226 = tested on: NCI-H226
# MCF7 = tested on: MCF7
# K562 = tested on: K562
# RXF 393 = tested on: RXF 393
# CAKI-1 = tested on: CAKI-1
# MDA-MB-435 = tested on: MDA-MB-435
# UO-31 = tested on: UO-31
# CCRF-CEM = tested on: CCRF-CEM
# A498 = tested on: A498
# KM12 = tested on: KM12
# HCC 2998 = tested on: HCC 2998
# SK-MEL-28 = tested on: SK-MEL-28
structure (smiles),measurement,setting,value
CC1(C)OC2C(COC(c3ccccc3)(c3ccccc3)c3ccccc3)OC(c3c[nH]c4c(N)ncnc34)C2O1 (stereo unspecified),GI50,OVCAR-8,5.77 µM (inactive)
same,GI50,786-0,1.87 µM (inactive)
same,GI50,DU-145,5.6 µM (inactive)
same,GI50,PC-3,1.86 µM (inactive)
same,GI50,SF-295,3 µM (inactive)
same,GI50,SK-OV-3,4.86 µM (inactive)
same,GI50,SK-MEL-5,1.58 µM (inactive)
same,GI50,MOLT-4,1.89 µM (inactive)
same,GI50,EKVX,8.61 µM (inactive)
same,GI50,UACC-62,1.31 µM (inactive)
same,GI50,NCI-H522,4.53 µM (inactive)
same,GI50,NCI/ADR-RES,9.48 µM (inactive)
same,GI50,HOP-62,4.86 µM (inactive)
same,GI50,OVCAR-3,3.13 µM (inactive)
same,GI50,Hs-578T,5.73 µM (inactive)
same,GI50,IGROV-1,4.49 µM (inactive)
same,GI50,NCI-H460,3.33 µM (inactive)
same,GI50,HT-29,2.56 µM (inactive)
same,GI50,MDA-MB-231,13.1 µM (inactive)
same,GI50,T47D,3.92 µM (inactive)
same,GI50,HOP-92,5.62 µM (inactive)
same,GI50,SF-268,5.82 µM (inactive)
same,GI50,MDA-N,3.16 µM (inactive)
same,GI50,HCT-15,4.06 µM
same,GI50,HCT-116,4.67 µM (inactive)
same,GI50,SN12C,3.92 µM (inactive)
same,GI50,OVCAR-4,7.78 µM (inactive)
same,GI50,A549,3.18 µM (inactive)
same,GI50,Malme-3M,4.92 µM (inactive)
same,GI50,M14,2.76 µM (inactive)
same,GI50,SNB-75,7.48 µM (inactive)
same,GI50,SW-620,3.25 µM (inactive)
same,GI50,LOX IMVI,1.6 µM (inactive)
same,GI50,COLO 205,10.7 µM (inactive)
same,GI50,SK-MEL-2,4.89 µM (inactive)
same,GI50,ACHN,2.67 µM (inactive)
same,GI50,SR,4.06 µM (inactive)
same,GI50,UACC-257,4.68 µM (inactive)
O=[N+]([O-])CC(SCc1ccccc1)c1ccc2c(c1)OCO2 (stereo unspecified),GI50,OVCAR-8,8.49 µM (inactive)
same,GI50,TK-10,10.8 µM (inactive)
same,GI50,786-0,1.68 µM (inactive)
same,GI50,DU-145,14.5 µM (inactive)
same,GI50,PC-3,16.8 µM (inactive)
same,GI50,SF-295,7.76 µM (inactive)
same,GI50,SK-OV-3,15.1 µM (inactive)
same,GI50,SK-MEL-5,12.2 µM (inactive)
same,GI50,MOLT-4,3.37 µM (inactive)
same,GI50,EKVX,20.2 µM (inactive)
same,GI50,UACC-62,9.89 µM (inactive)
same,GI50,NCI-H522,11.5 µM (inactive)
same,GI50,NCI/ADR-RES,9.57 µM (inactive)
same,GI50,HL-60,1.58 µM (inactive)
same,GI50,HOP-62,17.4 µM (inactive)
same,GI50,OVCAR-3,6.12 µM (inactive)
same,GI50,Hs-578T,6.31 µM (inactive)
same,GI50,SF-539,4.01 µM (inactive)
same,GI50,SNB-19,14 µM (inactive)
same,GI50,IGROV-1,5.6 µM (inactive)
same,GI50,NCI-H460,14.8 µM (inactive)
same,GI50,U-251,6.59 µM (inactive)
same,GI50,HT-29,2.61 µM (inactive)
same,GI50,MDA-MB-231,10.3 µM (inactive)
same,GI50,T47D,19.6 µM (inactive)
same,GI50,NCI-H23,7.19 µM (inactive)
same,GI50,RPMI-8226,1.57 µM (inactive)
same,GI50,HOP-92,3.79 µM (inactive)
same,GI50,SF-268,9.4 µM (inactive)
same,GI50,MDA-N,2.45 µM (inactive)
same,GI50,OVCAR-5,15.2 µM (inactive)
same,GI50,NCI-H226,7.91 µM (inactive)
same,GI50,HCT-15,3.84 µM
same,GI50,MCF7,3.04 µM (inactive)
same,GI50,K562,1.55 µM (inactive)
same,GI50,HCT-116,1.69 µM (inactive)
same,GI50,SN12C,11.7 µM (inactive)
same,GI50,RXF 393,1.82 µM (inactive)
same,GI50,OVCAR-4,13.2 µM (inactive)
same,GI50,A549,7.67 µM (inactive)
same,GI50,Malme-3M,14.9 µM (inactive)
same,GI50,M14,5.6 µM (inactive)
same,GI50,SNB-75,15.1 µM (inactive)
same,GI50,CAKI-1,14.2 µM (inactive)
same,GI50,SW-620,3.81 µM (inactive)
same,GI50,LOX IMVI,1.56 µM (inactive)
same,GI50,COLO 205,8.24 µM (inactive)
same,GI50,SK-MEL-2,21.1 µM (inactive)
same,GI50,MDA-MB-435,2.5 µM (inactive)
same,GI50,UO-31,8.26 µM (inactive)
same,GI50,CCRF-CEM,2.54 µM (inactive)
same,GI50,A498,6.98 µM (inactive)
same,GI50,KM12,6.84 µM (inactive)
same,GI50,ACHN,13.1 µM (inactive)
same,GI50,SR,3.13 µM (inactive)
same,GI50,HCC 2998,5.57 µM (inactive)
same,GI50,UACC-257,6.79 µM (inactive)
same,GI50,SK-MEL-28,5.82 µM (inactive)
